Assay results taken from patent US20110190280A1, “Thiazole And Oxazole Kinase Inhibitors” (priority 2007, published 2011).

What was measured:
[1] = target: B-Raf (Homo sapiens, UniProt P15056); assay: B-Raf Accelerated MEK ATPase assay (BRAMA); format: biochemical; details: BRAMA enzyme assay; class by pIC50; read-out: B-Raf Activity
Method in brief: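 B-Raf activity read as intrinsic MEK ATPase: catalytic activated RAF with non-phosphorylated MEK drives ADP formation, coupled through pyruvate kinase and lactate dehydrogenase to NADH oxidation, independent of ERK phosphorylation.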

[2] = target: EGFR (Homo sapiens, UniProt P00533); assay: EGFR kinase autophosphorylation assay (peptide phosphorylation, HTRF); format: biochemical; details: 0.8 nM EGFR, class by pIC50
Experimental: (§1) A selection of compounds of the present invention were tested for inhibitory activity against EGFR and ErbB2 kinases in autophosphorylation assays.
(§2) The method measures the ability of the isolated enzyme to catalyse the transfer of the gamma-phosphate from ATP onto the tyrosine residue of a biotinylated synthetic peptide referenced “Peptide C” in Brignola, P. S., et al, (2002) J. Biol. Chem. 277(2):1576-1585. The extent of tyrosine phosphorylation was measured using an anti-phosphotyrosine antibody, and quantified by homogenous time-resolved fluorescence (HTRF).
(§3) Reactions were performed in black 384-well polystyrene flat-bottom plates in a final volume of 20 ul. Assays were performed by adding 10 μl of each of the following solutions, substrate Mix and enzyme mix: The Substrate mix contained 100 mM 3-[N-morpholino]propanesulfonic acid (MOPS) (pH 7.5), 2 mM MnCl2, 20 μM ATP, 0.01% Tween-20, 0.1 mg/mL (BSA), 0.8 uM peptide substrate, and 1 mM dithiothreitol. The enzyme mix contained 100 mM MOPS (pH7.5); 0.01% Tween-20; 0.1 mg/mL BSA, and either 0.8 nM EGFR, 10 nM ErbB2, or 1 nM ErbB4
(§4) The enzyme mix was added to the compound plates and the plates were incubated at 20° C. for 1 hour. The reactions were allowed to proceed for 90 minutes at 20° C. The reactions were then terminated by the addition of 20 μl 100 mM EDTA to each well. 40 μl/well of HTRF detection mix were added to the assay plates. The final concentrations of the detection reagents were: 100 mM HEPES (pH7.5), 0.1 mg/mL BSA, 15 nM streptavidin-labeled allophycocyanin (PerkinElmer), and 1 nM europium-labeled anti-phosphotyrosine antibody (PerkinElmer). Assay plates were left unsealed and were counted in a Wallac Multilabel Counter 1420 (PerkinElmer).
(§5) Compounds under analysis were dissolved in Me2SO to 1.0 mM and serially diluted 1 to 3 with Me2SO through twelve dilutions. 1 μl of each concentration was transferred to the corresponding well of an assay plate. This creates a final compound concentration range from 0.00027 to 47.6 μM.
(§6) The data for dose responses were plotted as % Inhibition calculated with the data reduction formula 100*(1−(U1−C2)/(C1−C2)) versus concentration of compound where U is the unknown value, C1 is the average control value obtained for 4.76% DMSO, and C2 is the average control value obtained for 0.035 M EDTA. Data were fitted with a curve described by:
(§7) where Vmax is the upper asymptote, Y2 is the Y intercept, and K is the IC50. The results for each compound were recorded as pIC50s, calculated as follows: […]
(§8) In the following table: • “+” indicates no pIC50 measurement greater than 6 against EGFR or ErbB2, • “++” indicates at least one pIC50 measurement greater than 6 against EGFR or ErbB2 but no measurement greater than pIC50 of 7; and • “+++” indicates at least one pIC50 measurement of greater than 7 against EGFR or ErbB2.

[3] = target: ErbB2 (Homo sapiens, UniProt P04626); assay: ErbB2 kinase autophosphorylation assay (peptide phosphorylation, HTRF); format: biochemical; details: 10 nM ErbB2, HTRF; class by pIC50
Experimental: as §1, §2, §3, §4, §5, §6, §7, §8

[4] = test system: A375P tumor cells; assay: Cell growth inhibition assay (CellTiter-Glo), A375P; details: Homo sapiens, 72 h, read-out: Activity in A375P Tumor Cells;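 note: total ATP luminescence used as proxy for cell number, serial threefold compound dilutions at 0.2% DMSO, growth inhibition expressed versus DMSO vehicle-treated wells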
[5] = test system: HT-29 tumor cells; assay: Cell growth inhibition assay (CellTiter-Glo), HT-29; details: Homo sapiens, HT-29, 72 h, read-out: Activity in HT-29 Tumor Cells;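 note: ATP content read by luminescence as proxy for cell number, growth inhibition versus DMSO vehicle wells, 0.2% DMSO final, nine serial threefold compound dilutions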
Experimental: (§9) Cell Growth Inhibition Assays Human colon tumor cells (Colo205) were cultured in RPMI (Mediatech 50-020-PB) containing 10% FBS and 1% penicillin-streptomycin. […] Human melanoma cancer cells (A375-F11S) were cultured in RPMI (Mediatech 50-020-PB) containing 10% FBS, 1% sodium pyruvate, and 1% penicillin-streptomycin. Human colon cancer cells (HT-29) were cultured in high glucose DMEM (Mediatech 50-013-PB) containing 10% FBS and 1% penicillin-streptomycin. Human melanoma cancer cells (SK-MEL-3) were cultured in McCoy's 5A (50-025-PB) containing 15% FBS, and 1% penicillin-streptomycin. All cell lines were maintained at 37° C. in a humidified 5% CO2, 95% air incubator.
(§10) The next day, compounds were diluted as follows: For 96-well assays, 13.5 μl of compound in DMSO were diluted using nine (9) serial 1:3 dilutions of 4.5 μl in 9 μl of DMSO. Medium (270 μl/well of RPMI with 10% FBS and 1% penicillin-streptomycin) was added to the plates. Aliquots (7 μl) were added to cells in the final assay giving a final DMSO concentration of 0.2%. For 384-well assays, 15 μl of compound in DMSO were diluted using nine (9) serial 1:3 dilutions of 5 μl in 10 μl of DMSO, followed by a further dilution of 5 μl of compound with 95 μl of medium, of which 2 μl are added to cells in the final assay giving a final DMSO concentration of 0.2%. Cells were incubated at 37° C., 5% CO2 for 3 days.
(§11) Total ATP was measured (as a surrogate estimate of cell number) using CellTiter-Glo® (Promega G7571) reagent. Briefly, plates were removed from the incubator and allowed to equilibrate to room temperature for 30 minutes. CellTiter-Glo® (25 μl or 55 μl for 384-well or 96-well assays, respectively) reagent was added to each well and plates were shaken on an orbital plate shaker for 2 minutes. Plates were incubated without shaking for a further 30 minutes and read on an LJL Analyst GT reader in luminometer mode with an integration time of 0.5 seconds per well. Percent inhibition of cell growth was calculated relative to DMSO vehicle-treated control wells.

[6] = test system: Colo205 tumor cells; assay: Cell growth inhibition assay (CellTiter-Glo), Colo205; details: Homo sapiens, COLO 205, 72 h, read-out: Activity in Colo205 Tumor Cells;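 note: growth measured via total ATP luminescence (CellTiter-Glo) as a proxy for cell number, inhibition expressed against DMSO-treated control wells, 3-day exposure at 0.2% final DMSO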
[7] = test system: SK-MEL-3 tumor cells; assay: Cell growth inhibition assay (CellTiter-Glo), SK-MEL-3; details: Homo sapiens, SK-MEL3, 72 h, read-out: Activity in SK-MEL-3 Tumor Cells;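 note: human melanoma cells grown with compound for 3 days in 0.2% DMSO, total ATP read by luminescence as proxy for cell number, growth inhibition versus DMSO-treated wells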
Experimental: as §9, §10, §11

[8] = test system: SK-MEL-28 tumor cells; assay: Cell growth inhibition assay (CellTiter-Glo), SK-MEL-28; details: Homo sapiens, SK-MEL-28, 72 h, read-out: Activity in SK-MEL-28 Tumor Cells;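 note: luminescent total ATP as a proxy for cell number, threefold serial dilutions at 0.2% DMSO, percent growth inhibition versus DMSO vehicle control wells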

EGFR, sequence (P00533 25-1210): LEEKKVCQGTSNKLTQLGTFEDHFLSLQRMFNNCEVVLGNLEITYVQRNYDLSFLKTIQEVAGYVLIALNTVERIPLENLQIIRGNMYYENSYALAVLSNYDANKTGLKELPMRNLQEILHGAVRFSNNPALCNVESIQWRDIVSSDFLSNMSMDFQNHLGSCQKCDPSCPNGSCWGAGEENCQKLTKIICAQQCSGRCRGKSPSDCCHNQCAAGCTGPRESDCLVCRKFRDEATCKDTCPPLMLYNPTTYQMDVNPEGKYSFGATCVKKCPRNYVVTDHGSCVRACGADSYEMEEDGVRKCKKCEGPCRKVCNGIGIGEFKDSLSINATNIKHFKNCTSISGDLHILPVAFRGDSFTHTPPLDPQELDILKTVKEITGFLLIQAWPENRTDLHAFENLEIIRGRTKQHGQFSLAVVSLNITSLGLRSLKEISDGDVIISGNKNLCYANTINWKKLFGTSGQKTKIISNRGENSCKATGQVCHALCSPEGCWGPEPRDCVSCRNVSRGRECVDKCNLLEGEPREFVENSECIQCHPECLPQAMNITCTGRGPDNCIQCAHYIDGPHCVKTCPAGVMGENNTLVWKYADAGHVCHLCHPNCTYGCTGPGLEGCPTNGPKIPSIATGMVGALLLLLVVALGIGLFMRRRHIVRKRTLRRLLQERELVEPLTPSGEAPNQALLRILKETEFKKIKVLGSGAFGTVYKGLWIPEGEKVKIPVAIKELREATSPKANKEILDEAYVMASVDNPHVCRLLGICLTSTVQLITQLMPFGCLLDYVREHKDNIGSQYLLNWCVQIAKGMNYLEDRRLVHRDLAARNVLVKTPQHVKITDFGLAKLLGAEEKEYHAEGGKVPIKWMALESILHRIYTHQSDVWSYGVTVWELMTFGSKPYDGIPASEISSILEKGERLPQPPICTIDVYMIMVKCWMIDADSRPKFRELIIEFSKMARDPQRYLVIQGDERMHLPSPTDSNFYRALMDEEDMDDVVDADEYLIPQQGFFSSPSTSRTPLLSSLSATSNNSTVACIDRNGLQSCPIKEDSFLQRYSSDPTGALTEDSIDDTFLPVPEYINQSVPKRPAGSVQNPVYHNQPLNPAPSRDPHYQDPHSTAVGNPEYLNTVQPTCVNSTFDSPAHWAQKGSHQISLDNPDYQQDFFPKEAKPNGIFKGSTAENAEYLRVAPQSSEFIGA
ErbB2, sequence (P04626 23-1255): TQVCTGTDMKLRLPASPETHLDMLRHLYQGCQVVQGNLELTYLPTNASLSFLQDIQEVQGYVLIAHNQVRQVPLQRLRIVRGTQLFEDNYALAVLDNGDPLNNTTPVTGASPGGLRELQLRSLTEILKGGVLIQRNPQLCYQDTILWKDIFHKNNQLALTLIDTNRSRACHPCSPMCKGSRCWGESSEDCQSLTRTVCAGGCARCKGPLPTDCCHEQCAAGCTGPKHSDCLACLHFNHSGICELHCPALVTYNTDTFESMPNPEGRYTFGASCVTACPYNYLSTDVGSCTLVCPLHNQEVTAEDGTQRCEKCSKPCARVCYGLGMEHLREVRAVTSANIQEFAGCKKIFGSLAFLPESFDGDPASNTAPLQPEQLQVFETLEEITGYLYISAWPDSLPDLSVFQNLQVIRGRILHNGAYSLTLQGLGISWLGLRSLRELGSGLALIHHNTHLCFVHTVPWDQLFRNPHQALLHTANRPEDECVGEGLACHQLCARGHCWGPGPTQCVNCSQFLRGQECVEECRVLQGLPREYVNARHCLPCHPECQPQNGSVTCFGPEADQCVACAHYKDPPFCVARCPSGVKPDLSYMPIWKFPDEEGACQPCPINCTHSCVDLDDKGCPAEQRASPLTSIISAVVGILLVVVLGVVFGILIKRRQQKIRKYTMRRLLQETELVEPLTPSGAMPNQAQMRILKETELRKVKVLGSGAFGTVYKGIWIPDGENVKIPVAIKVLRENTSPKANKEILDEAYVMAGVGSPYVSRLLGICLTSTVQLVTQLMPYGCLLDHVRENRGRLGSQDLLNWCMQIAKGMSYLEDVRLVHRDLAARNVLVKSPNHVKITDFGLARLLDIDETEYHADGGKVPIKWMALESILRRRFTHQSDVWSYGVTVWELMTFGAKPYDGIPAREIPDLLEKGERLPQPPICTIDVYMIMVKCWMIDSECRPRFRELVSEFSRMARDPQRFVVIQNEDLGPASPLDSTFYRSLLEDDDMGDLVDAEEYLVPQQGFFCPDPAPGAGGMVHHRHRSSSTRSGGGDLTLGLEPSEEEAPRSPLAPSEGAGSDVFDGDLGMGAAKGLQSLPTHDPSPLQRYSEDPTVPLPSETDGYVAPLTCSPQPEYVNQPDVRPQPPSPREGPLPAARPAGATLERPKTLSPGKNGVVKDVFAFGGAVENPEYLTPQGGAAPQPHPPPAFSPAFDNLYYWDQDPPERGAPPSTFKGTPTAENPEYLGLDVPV
B-Raf, sequence (P15056 whole entry): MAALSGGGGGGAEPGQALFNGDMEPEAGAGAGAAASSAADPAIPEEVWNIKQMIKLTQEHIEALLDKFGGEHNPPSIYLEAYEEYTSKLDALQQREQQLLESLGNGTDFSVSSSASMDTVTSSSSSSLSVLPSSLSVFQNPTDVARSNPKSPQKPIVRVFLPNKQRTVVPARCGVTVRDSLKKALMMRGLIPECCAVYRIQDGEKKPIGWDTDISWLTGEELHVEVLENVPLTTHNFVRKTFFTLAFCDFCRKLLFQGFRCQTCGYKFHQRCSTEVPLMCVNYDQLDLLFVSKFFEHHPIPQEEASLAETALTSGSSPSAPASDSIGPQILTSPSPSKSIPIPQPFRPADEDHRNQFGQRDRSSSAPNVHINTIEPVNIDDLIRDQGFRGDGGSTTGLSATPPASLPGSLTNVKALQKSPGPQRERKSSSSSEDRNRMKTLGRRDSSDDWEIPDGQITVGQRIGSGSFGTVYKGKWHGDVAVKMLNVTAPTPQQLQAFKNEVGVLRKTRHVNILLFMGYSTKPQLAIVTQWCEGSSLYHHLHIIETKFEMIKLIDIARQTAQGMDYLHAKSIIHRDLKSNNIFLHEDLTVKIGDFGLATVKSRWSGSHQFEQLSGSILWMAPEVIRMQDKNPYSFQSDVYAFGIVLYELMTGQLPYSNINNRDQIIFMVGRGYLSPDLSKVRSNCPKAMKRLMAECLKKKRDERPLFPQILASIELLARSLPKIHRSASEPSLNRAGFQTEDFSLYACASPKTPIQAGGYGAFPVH

Structure (SMILES)	IC50 [1]	IC50 [2]	IC50 [3]	IC50 [4]	IC50 [5]	IC50 [6]	IC50 [7]	IC50 [8]
CCNc1nc(-c2cc(C)cc(OC)c2)c(-c2ccnc(Nc3ccc(N4CCS(=O)(=O)CC4)nc3)n2)s1 [Example 34, N-[6-(1,1-Dioxido-4-thiomorpholinyl)-3-pyridinyl]-4-{2-(ethylamino)-4-[3-methyl-5-(methyloxy)phenyl]-1,3-thiazol-5-yl}-2-pyrimidinamine]	< 100 nM	> 1000 nM	> 1000 nM	< 500 nM	< 500 nM	< 500 nM	< 500 nM	< 500 nM
CCNc1nc(-c2cc(OC)cc(OC)c2)c(-c2ccnc(Nc3ccc(OC4CCN(CCS(C)(=O)=O)CC4)c(C)c3)n2)o1 [Example 87]	< 100 nM	> 1000 nM	> 1000 nM	500 to 5000 nM	500 to 5000 nM	500 to 5000 nM	500 to 5000 nM	500 to 5000 nM
CCNc1nc(-c2cccc(O)c2)c(-c2ccnc(Nc3ccc(OCCN4CCCC4)c(Cl)c3)n2)s1 [Example 44]	< 100 nM	< 100 nM	< 100 nM	< 500 nM	< 500 nM	< 500 nM	< 500 nM	< 500 nM
Fc1cc(Nc2nccc(-c3sc(N4CCCC4)nc3-c3cccc(Cl)c3)n2)ccc1OCCN1CCCC1 [Example 103]	< 100 nM	100 to 1000 nM	< 100 nM	500 to 5000 nM	< 500 nM	500 to 5000 nM	< 500 nM	500 to 5000 nM
CCNc1nc(-c2cc(OC)cc(OC)c2)c(-c2ccnc(Nc3cc(F)c(N4CCN(CCS(C)(=O)=O)CC4)c(F)c3)n2)o1 [Example 91]	< 100 nM	> 1000 nM	> 1000 nM	500 to 5000 nM	500 to 5000 nM	< 500 nM	< 500 nM	500 to 5000 nM
CCNc1nc(-c2cc(OC)cc(OC)c2)c(-c2ccnc(Nc3ccc(OC4CCN(CCS(C)(=O)=O)CC4)c(F)c3)n2)o1 [Example 82]	< 100 nM	> 1000 nM	> 1000 nM	> 5000 nM	< 500 nM	< 500 nM	< 500 nM	500 to 5000 nM
CCc1nc(-c2ccc(CO)c(OC)c2)c(-c2ccnc(Nc3ccc(N4CCN(C(C)=O)CC4)nc3)n2)s1 [Example 55]	< 100 nM	> 1000 nM	> 1000 nM	< 500 nM	< 500 nM	< 500 nM	< 500 nM	< 500 nM
CCc1nc(-c2cc(C)cc(OC)c2)c(-c2ccnc(Nc3ccc(OCCO)c(C#N)c3)n2)s1 [Example 107]	< 100 nM	> 1000 nM	> 1000 nM	500 to 5000 nM	< 500 nM	< 500 nM	< 500 nM	500 to 5000 nM
CCNc1nc(-c2cc(C)cc(OC)c2)c(-c2ccnc(Nc3ccc(N4CCN(CCS(C)(=O)=O)CC4)c(F)c3)n2)s1 [Example 27, 4-{2-(Ethylamino)-4-[3-methyl-5-(methyloxy)phenyl]-1,3-thiazol-5-yl}-N-(3-fluoro-4-{4-[2-(methylsulfonyl)ethyl]-1-piperazinyl}phenyl)-2-pyrimidinamine]	< 100 nM	> 1000 nM	> 1000 nM	< 500 nM	< 500 nM	< 500 nM	< 500 nM	< 500 nM
CCNc1nc(-c2cccc(OC)c2)c(-c2ccnc(Nc3ccc(OCCN4CCCC4)c(F)c3)n2)s1 [Example 72, 4-{2-(Ethylamino)-4-[3-(methyloxy)phenyl]-1,3-thiazol-5-yl}-N-(3-fluoro-4-{[2-(1-pyrrolidinyl)ethyl]oxy}phenyl)-2-pyrimidinamine]	< 100 nM	< 100 nM	< 100 nM	< 500 nM	< 500 nM	< 500 nM	< 500 nM	500 to 5000 nM
